# Structures can show the parent of a compound that is named as a salt.
# Experiments:
# IL-23p19 = test: LPS Induced IL23p19 in THP-1 Cells (with IFNγ Primed) Assay; type: cell-based, human; details: Homo sapiens, THP-1, THP-1 cells, IFNγ (50 ng/mL) primed, 1 hour compound pre-incubation, LPS 1 ug/mL 18 hours, 10 pt; read-out: IL23-p19 ELISA, THP1-IFNy, LPS, 10 pt EC50
# Summary of the method: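 THP-1 cells (50K/well) primed ~18 h with IFNγ (50 ng/mL) in RPMI/10% FBS, then incubated with compound in duplicate for 18 h at 37° C. Supernatant IL-23p19 measured by chemiluminescent sandwich ELISA, giving EC50 by curve fitting. Toxicity assessed in parallel on the remaining cells by Cell Titer Glo.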
# IL-23 (p19/p40) = test: IL23-p19 ELISA, dendritic cells (DC differentiated from human PBMC, IFNγ primed), LPS stimulated; type: cell-based; details: Dendritic cell, human PBMC-derived dendritic cells, 1 h compound pre-incubation, LPS 1 μg/ml 18 hours, 10 pt
# Experimental: Compound Screening Using DC Cells
# I. Differentiation of PBMC's to DC Cells:
# After 2 hours, the media including floating cells was aspirated out carefully and 12 ml of fresh RPMI media (10% FBS) containing GMCSF (100 ng/ml) and IL4 (20 ng/ml) was added, and the flask was kept in a 37° C. incubator for 7 days.
# After 3 days, fresh GMCSF (100 ng/ml) and IL4 (20 ng/ml) were added to the flask and the incubation continued. After 7 days, the fully differentiated cells were harvested by spinning down (1200 rpm/5 min) and aspirating the media. The cells were suspended in fresh RPMI media (10% FBS) containing 50 ng/ml IFNγ (1000 U/ml) and then plated (50K/well in 100 μl) onto a white clear bottom 96 well plate and left in a 37° C. incubator for 24 hours.
# II. Addition of Compounds:
# After 24 hours incubation, 100 μl of RPMI media was added containing 2× concentrated test compound per well to the above cell-culture media (final concentration becomes 1×) and the plates were pre-incubated for 1 hour at 37° C. before stimulating with LPS.
# The mixture was shaken and incubated the plates at 37° C. for an additional 18 hours.
# 155 μl of the supernatant was harvested from each well carefully (without the tip touching the bottom of the well) and to the remaining 50 μl/well of the cell culture plate was added 50 μl of Cell Titer Glo reagent. The mixture was incubated for 1-2 minutes on a shaker and the plate was read for luminescence intensity to determine the compound cytotoxicity. The cell culture supernatant collected above was used to carry out IL23 ELISA (65 μl—Supernatant) and IL10 ELISA (90 μl—Supernatant) as described below.
# Human IL-23 (p19/p40) ELISA Protocol (e-Biosciences)
# To 10.5 ml PBS add 50 μl of anti-IL23 (p19) was added capture antibody (2.5 μg/ml). The mixture was mixed well and 100 μl of the coating solution was added to each well of the 96 well white plates from Pierce. The wells were covered and incubated overnight at 4° C.
# The anti-IL23 (p19)-antibody-coated plates were washed 2× using TBST (use plate washer) and blocked using 200 μl of 0.5% Casein for 1.5-2 hours at room temperature with shaking.
# Addition of Supernatant and Detection:
# The plates were washed 2× using TBST and the supernatant was transferred (65 μl/well) to the above pre-blocked/IL23(p19)-antibody-coated 96 well plate, and incubated at room temperature for 1.5 hours with shaking.
# The plates were washed 4× using TBST (plate washer) and 100 μl/well detection antibody solution prepared from 2 μl of biotin labeled anti-IL-12 (p40/p70) antibody in 11 ml 1% BSA/PBS solution (1-5000 dilution) was added. The plates were incubated for 1 hour with shaking at Room temperature.
# Again, the plates were washed 4× with TBST and 100 μl of HRP labeled Streptavidin (R&D Systems) solution (10 μl/10 ml 1% BSA solution) was added, and the plates were incubated at room temperature for another 45 minutes with shaking.
# After 45 minutes, the plates were washed with TBST 4× and 100 μl/well Super Signal ELISA Pico Chemiluminescent Substrate from Pierce (3.5 ml A+3.5 ml B+3.5 ml MQ water) was added. The plates were shaken for 1-2 minutes then read on a plate reader.
EC50 (IL-23p19) [nM],EC50 (IL-23 (p19/p40)) [nM],Structure (SMILES)
873,3780,"Cn1cc(NC(=O)c2cncc(-c3cn[nH]c3)n2)c(-c2ccccn2)n1 [Compound I-122, N-(1-methyl-3-(pyridin-2-yl)-1H-pyrazol-4-yl)-6-(1H-pyrazol-4-yl)pyrazine-2-carboxamide]"
371,1060,"COC1CC(n2cc(NC(=O)c3cccc(-c4cn[nH]c4)n3)c(-c3ccccn3)n2)C1 (centres unmarked) [Compound I-163, N-(1-(3-methoxycyclobutyl)-3-(pyridin-2-yl)-1H-pyrazol-4-yl)-6-(1H-pyrazol-4-yl)picolinamide formate]"
7880,4120,"COCCOCCn1cc(NC(=O)c2cccc(-c3ccoc3)n2)c(-c2ccccn2)n1 [Compound I-151, 6-(furan-3-yl)-N-(1-(2-(2-methoxyethoxy)ethyl)-3-(pyridin-2-yl)-1H-pyrazol-4-yl)picolinamide 2,2,2-trifluoroacetate]"
29400,1180,"Cn1cc(NC(=O)c2ccnc(-c3cc[nH]n3)n2)c(-c2ccccn2)n1 [Compound I-138, N-(1-methyl-3-(pyridin-2-yl)-1H-pyrazol-4-yl)-2-(1H-pyrazol-3-yl)pyrimidine-4-carboxamide]"
2070,19300,"Cc1cncc(-c2cccc(C(=O)Nc3cn(C)nc3-c3ccc(OCC(C)(C)O)cn3)n2)c1 [Compound I-178, N-(3-(5-(2-hydroxy-2-methylpropoxy)pyridin-2-yl)-1-methyl-1H-pyrazol-4-yl)-5′-methyl-[2,3′-bipyridine]-6-carboxamide]"
463,628,"COCCOCCn1cc(NC(=O)c2cccc(-c3cn[nH]c3)n2)c(-c2ccccn2)n1 [Compound I-153, N-(1-(2-(2-methoxyethoxy)ethyl)-3-(pyridin-2-yl)-1H-pyrazol-4-yl)-6-(1H-pyrazol-4-yl)picolinamide formate]"
9010,6840,"CN1CCN(c2ccc(-c3nn(C)cc3NC(=O)c3cccc(-c4cc[nH]n4)n3)nc2)CC1 [Compound I-175, N-(1-methyl-3-(5-(4-methylpiperazin-1-yl)pyridin-2-yl)-1H-pyrazol-4-yl)-6-(1H-pyrazol-3-yl)picolinamide]"
156,100,"O=C(Nc1cn(C2COC2)nc1-c1ccccn1)c1cccc(-c2cc[nH]n2)n1 [Compound I-117, N-(1-(oxetan-3-yl)-3-(pyridin-2-yl)-1H-pyrazol-4-yl)-6-(1H-pyrazol-3-yl)picolinamide]"
26700,2040,"CC(=O)Nc1ccc(-c2cccc(C(=O)Nc3cn(C)nc3-c3cnccn3)n2)cn1 [Compound I-102, 6′-acetamido-N-(1-methyl-3-(pyrazin-2-yl)-1H-pyrazol-4-yl)-[2,3′-bipyridine]-6-carboxamide]"
54900,7760,"O=C(Nc1cn(C2COC2)nc1-c1ccccn1)c1cccc(-c2cncc(C(F)(F)F)c2)n1 [Compound I-132, N-(1-(oxetan-3-yl)-3-(pyridin-2-yl)-1H-pyrazol-4-yl)-5′-(trifluoromethyl)-[2,3′-bipyridine]-6-carboxamide]"

# Further lines, the molecule ahead of its results:
Structure (SMILES),EC50 (IL-23p19) [nM],EC50 (IL-23 (p19/p40)) [nM]
"Cn1cc(NC(=O)c2cccc(-c3cn[nH]c3)n2)c(N2CCCC2)n1 [Compound I-72, N-(1-methyl-3-(pyrrolidin-1-yl)-1H-pyrazol-4-yl)-6-(1H-pyrazol-4-yl)picolinamide]",7580,3170
"COc1ccc(-c2nn(C)cc2NC(=O)c2cccc(-c3ccn[nH]3)n2)nc1 [Compound I-67, N-(3-(5-methoxypyridin-2-yl)-1-methyl-1H-pyrazol-4-yl)-6-(1H-pyrazol-5-yl)picolinamide]",483,2680
"CNc1cncc(-c2cccc(C(=O)Nc3cn(C)nc3-c3ccccn3)n2)c1 [Compound I-26, N-(1-methyl-3-(pyridin-2-yl)-1H-pyrazol-4-yl)-5′-(methylamino)-[2,3′-bipyridine]-6-carboxamide]",2870,204
"Cn1cc(NC(=O)c2cccc(-c3cncc(NC(C)(C)C)c3)n2)c(-c2ccccn2)n1 [Compound I-29, 5′-(tert-butylamino)-N-(1-methyl-3-(pyridin-2-yl)-1H-pyrazol-4-yl)-[2,3′-bipyridine]-6-carboxamide]",16400,910
"CN1CCN(c2cncc(-c3cccc(C(=O)Nc4cn(C)nc4-c4ccccn4)n3)c2)CC1 [Compound I-38, N-(1-methyl-3-(pyridin-2-yl)-1H-pyrazol-4-yl)-5′-(4-methylpiperazin-1-yl)-[2,3′-bipyridine]-6-carboxamide]",6200,33700
"Cc1cncc(-c2cccc(C(=O)Nc3cn(C)nc3N3CCOCC3)n2)c1 [Compound I-77, 5′-methyl-N-(1-methyl-3-morpholino-1H-pyrazol-4-yl)-[2,3′-bipyridine]-6-carboxamide]",33200,2160
"CC(C)Nc1cncc(-c2cccc(C(=O)Nc3cn(C)nc3-c3ccccn3)n2)c1 [Compound I-28, 5′-(isopropylamino)-N-(1-methyl-3-(pyridin-2-yl)-1H-pyrazol-4-yl)-[2,3′-bipyridine]-6-carboxamide]",1450,546
"Cn1cc(NC(=O)c2cccc(-c3cncc(NC4CCOCC4)c3)n2)c(-c2ccccn2)n1 [Compound I-30, N-(1-methyl-3-(pyridin-2-yl)-1H-pyrazol-4-yl)-5′-((tetrahydro-2H-pyran-4-yl)amino)-[2,3′-bipyridine]-6-carboxamide]",772,3210
"CN1CCN(CCn2cc(NC(=O)c3cccc(-c4cn[nH]c4)n3)c(-c3ccccn3)n2)CC1 [Compound I-86, N-(1-(2-(4-methylpiperazin-1-yl)ethyl)-3-(pyridin-2-yl)-1H-pyrazol-4-yl)-6-(1H-pyrazol-4-yl)picolinamide]",98.5,407
"Cn1cc(NC(=O)c2cccc(-c3ccncc3)n2)c(-c2cnccn2)n1 [Compound I-100, N-(1-methyl-3-(pyrazin-2-yl)-1H-pyrazol-4-yl)-[2,4′-bipyridine]-6-carboxamide]",64100,9850
"Cn1cc(NC(=O)c2cccc(-c3cncc(NC4CC4)c3)n2)c(-c2ccccn2)n1 [Compound I-27, 5′-(cyclopropylamino)-N-(1-methyl-3-(pyridin-2-yl)-1H-pyrazol-4-yl)-[2,3′-bipyridine]-6-carboxamide]",7020,342
"CN(C)c1cncc(-c2cccc(C(=O)Nc3cn(C)nc3-c3ccccn3)n2)c1 [Compound I-35, 5′-(dimethylamino)-N-(1-methyl-3-(pyridin-2-yl)-1H-pyrazol-4-yl)-[2,3′-bipyridine]-6-carboxamide]",1110,878
"Cn1cc(NC(=O)c2cccc(-c3cncc(N)c3)n2)c(-c2ccccn2)n1 [Compound I-25, 5′-amino-N-(1-methyl-3-(pyridin-2-yl)-1H-pyrazol-4-yl)-[2,3′-bipyridine]-6-carboxamide]",169,34.7
"Cn1cc(NC(=O)c2cccc(-c3cc[nH]c3)n2)c(-c2ccccn2)n1 [Compound I-11, N-(1-methyl-3-(pyridin-2-yl)-1H-pyrazol-4-yl)-6-(1H-pyrrol-3-yl)picolinamide]",5900,4120
"Cc1cncc(-c2cccc(C(=O)Nc3cn(C(C)C)nc3-c3ccccn3)n2)c1 [Compound I-81, N-(1-isopropyl-3-(pyridin-2-yl)-1H-pyrazol-4-yl)-5′-methyl-[2,3′-bipyridine]-6-carboxamide]",2780,6470

# From patent US10947216B2, “Amide compounds and method for making and using” (Rigel Pharmaceuticals, Inc., priority 2016, dated 2021)
